Laboratory results as given in patent US20260315376A1, “NOVEL OPHTHALMIC COMPOSITION” (Cipla Limited, priority 2022, published 2026).
Converted amounts (≈) assume the structure as drawn.

How the values were obtained:
Corynebacterium = assay: Broth microdilution antibacterial susceptibility (MIC), keratitis/conjunctivitis isolates; format: cell-based; details: at ≤2 mcg/mL
Description: (§1) Example 3: In Vitro “Proof of Concept” Study of Effects of Plazomicin on Isolates from Bacterial Keratitis and/or Conjunctivitis
(§2) Isolates from patients diagnosed clinically with microbial keratitis were tested for antibacterial susceptibility against plazomicin agents using reference broth microdilution methods.
(§3) 21 grams of Muller Hinton broth powder was suspended in 1000 ml of distilled water.
(§4) Pure cultures of bacterial isolates were prepared in Blood Agar/Mueller Hinton agar from cryovials.
(§5) A standardized inoculum of 0.5 McFarland was prepared using direct colony suspension method.
(§6) 3-5 well isolated colonies were taken from 18-24 hour culture plate and suspended into 2 ml of sterile saline/Muller Hinton broth.
(§7) A homogenous suspension was made, and the turbidity was adjusted to 0.5McFarland turbidity standard (approximately 1*10^6-8 CFU/ml) using the Densitometer.
(§8) A 0.1 ml of standardized bacterial inoculum was added to 9.9 ml of sterile saline solution. (i.e., a 1:100 dilution).
(§9) A 96 well round bottomed plate was used for the Microbroth dilution assay.
(§10) A 100 μl of Muller Hinton broth containing drug concentrations from 0.125 mcg/ml to 64 mcg/ml (0.125 mcg/ml, 0.25 mcg/ml, 0.5 mcg/ml, 1 mcg/ml, 2 mcg/ml, 4 mcg/ml, 8 mcg/ml, 16 mcg/ml, 32 mcg/ml, and 64 mcg/ml) were added to the 96 well.
(§11) To this a 100 μl of the diluted bacterial inoculum (1:100) was added to each well with varying concentration of drugs. Each well contained 5*10^5 CFU/ml bacteria.
(§12) Growth control (Respective organism+Muller Hinton broth) and sterility control (Sterile Muller Hinton broth) were added to the 96 well plate.
(§13) The plate was incubated for 18-24 hours to read the Minimum Inhibitory Concentration (MIC).
(§14) Gram positive isolates evaluated: • 1. Methicillin susceptible Staphylococcus aureus (MSSA) • 2. Methicillin resistant Staphylococcus aureus (MRSA) • 3. Staphylococcus epidermidis • 4. Staphylococcus hominis • 5. Staphylococcus haemolyticus • 6. Streptococcus pneumoniae • 7. Corynebacterium

[1] = tested on: Methicillin resistant Staphylococcus aureus (MRSA); assay: as above; format: cell-based
Description: as §1, §2, §3, §4, §5, §6, §7, §8, §9, §10, §11, §12, §13, §14

[2] = tested on: Methicillin susceptible Staphylococcus aureus (MSSA); assay: as above; format: cell-based
Description: as §1, §2, §3, §4, §5, §6, §7, §8, §9, §10, §11, §12, §13, §14

Staphylococcus spp. = assay: as above; format: cell-based
Description: as §1, §2, §3, §4, §5, §6, §7, §8, §9, §10, §11, §12, §13, §14

S. epidermidis = assay: as above; format: cell-based, Staphylococcus epidermidis; details: at ≤2 mcg/mL
Description: as §1, §2, §3, §4, §5, §6, §7, §8
(§15) A 96 well round bottomed plate was used for the Microbroth dilution assay. […]
as §13
(§16) Gram positive isolates evaluated: • 1. […]

S. hominis = assay: as above; format: cell-based, Staphylococcus hominis; details: at ≤2 mcg/mL
Description: as §1, §2, §3, §4, §5, §6, §7, §8, §15, §13, §16

S. haemolyticus = assay: as above; format: cell-based, Staphylococcus haemolyticus; details: at ≤2 mcg/mL
Description: as §1, §2, §3, §4, §5, §6, §7, §8, §15, §13, §16

Enterobacter spp. = assay: as above; format: cell-based; details: at ≤2 mcg/mL
Description: as §1, §2, §3, §4, §5, §6, §7, §8, §9, §10, §11, §12, §13
(§17) • 1. Pseudomonas • 2. Klebsiella pneumoniae • 3. Klebsiella pneumoniae (ESBLs) • 4. Moraxella lacunata • 5. Haemophilus influenzae • 6. Proteus • 7. Serratia • 8. Enterobacter e.

[3] = tested on: Enterobacterales isolates; assay: as above; format: cell-based
Description: as §1, §2, §3, §4, §5, §6, §7, §8, §9, §10, §11, §12, §13, §17

Moraxella lacunata = assay: as above; format: cell-based; details: at ≤2 mcg/mL
Description: as §1, §2, §3, §4, §5, §6, §7, §8, §9, §10, §11, §12, §13, §17

Pseudomonas spp. = assay: as above; format: cell-based
Description: as §1, §2, §3, §4, §5, §6, §7, §8, §9, §10, §11, §12, §13, §17

conjunctival isolates = assay: Broth microdilution antibacterial susceptibility (MIC), conjunctival isolates; format: cell-based; details: ≤4 mcg/mL
Description: as §1, §2, §3, §4, §5, §6, §7, §8, §15, §13, §16

[4] = tested on: Isolates from Bacterial Keratitis and/or Conjunctivitis; assay: In vitro proof of concept study, overall antibacterial activity; format: cell-based
Description: as §1, §2, §3, §4, §5, §6, §7, §8, §15, §13, §16

MRSA = details: vs amikacin; cited from earlier work
MSSA = details: vs amikacin; cited from earlier work
[5] = tested on: species of Staphylococcus; details: cited from earlier work
[6] = tested on: Gram-negative enteric bacteria; details: cited from earlier work
[7] = Staphylococcus aureus, 18-24 hours incubation

**Q.** Which results are given for `CN[C@@H]1[C@@H](O)[C@@H](O[C@@H]2[C@@H](O)[C@H](O[C@H]3OC(CNCCO)=CC[C@H]3N)[C@@H](N)C[C@H]2NC(=O)[C@@H](O)CCN)OC[C@]1(C)O` [Plazomicin]?
**A.** activity (% of isolates) (Corynebacterium): 100%; susceptible isolates [1]: 60%; MIC50 [1, 7]: 2 µg/mL (≈ 3.37 µM); MIC90 [1, 7]: 8 µg/mL (≈ 13.5 µM); susceptible isolates [2]: 67.3%; MIC50 [2, 7]: 2 µg/mL (≈ 3.37 µM); MIC90 [2, 7]: 8 µg/mL (≈ 13.5 µM); isolates inhibited (Staphylococcus spp.; at ≤2 mcg/mL): 46%; isolates inhibited (Staphylococcus spp.; at ≤4 mcg/mL): 73.5%; isolates inhibited (Staphylococcus spp.; at ≤8 mcg/mL): 90.10%; activity (% of isolates) (S. epidermidis): 100%; activity (% of isolates) (S. hominis): 100%; activity (% of isolates) (S. haemolyticus): 100%; activity (% of isolates) (Enterobacter spp.): 100%; isolates inhibited ([3]; at ≤2 mcg/mL): 61.5%; isolates inhibited ([3]; at ≤4 mcg/mL): 11.5%; activity (% of isolates) (Moraxella lacunata): 100%; showed activity for % of isolates (Pseudomonas spp.): 50%; MIC50 (Pseudomonas spp.; 18-24 hours incubation): 4 µg/mL (≈ 6.75 µM); MIC90 (Pseudomonas spp.; 18-24 hours incubation): 16 µg/mL (≈ 27 µM); susceptibility of conjunctival isolates (conjunctival isolates): 100%; antibacterial activity (conclusion) [4]: very good antibacterial activity; activity compared with amikacin (MRSA): greater activity than amikacin; activity compared with amikacin (MSSA): greater activity than amikacin; activity [5]: potent activity; in vitro activity compared with amikacin, gentamicin and tobramycin [6]: more potent in vitro activity than amikacin, gentamicin and tobramycin
